Data taken from PMC4171097, “Severe MgADP Inhibition of Bacillus subtilis F1-ATPase Is Not Due to the Absence of Nucleotide Binding to the Noncatalytic Nucleotide Binding Sites” (PLoS ONE, 2014).

Molecular target: T1, α3β3γ complex of BF1 (F1-ATPase from Bacillus subtilis) (Bacillus subtilis, UniProt P37808+P37809, P37808:R354W)
T1 construct: gene atpA; recombinant alpha3beta3gamma subcomplex of F1-ATPase (no delta, no epsilon), from plasmid pET21-BF1; with ATP synthase gamma chain
Test: tryptophan fluorescence quenching titration (ex […] nm, em […] nm), simple binding equation
Conditions: read-out: apparent Kd

T1 sequence (P37809 whole entry): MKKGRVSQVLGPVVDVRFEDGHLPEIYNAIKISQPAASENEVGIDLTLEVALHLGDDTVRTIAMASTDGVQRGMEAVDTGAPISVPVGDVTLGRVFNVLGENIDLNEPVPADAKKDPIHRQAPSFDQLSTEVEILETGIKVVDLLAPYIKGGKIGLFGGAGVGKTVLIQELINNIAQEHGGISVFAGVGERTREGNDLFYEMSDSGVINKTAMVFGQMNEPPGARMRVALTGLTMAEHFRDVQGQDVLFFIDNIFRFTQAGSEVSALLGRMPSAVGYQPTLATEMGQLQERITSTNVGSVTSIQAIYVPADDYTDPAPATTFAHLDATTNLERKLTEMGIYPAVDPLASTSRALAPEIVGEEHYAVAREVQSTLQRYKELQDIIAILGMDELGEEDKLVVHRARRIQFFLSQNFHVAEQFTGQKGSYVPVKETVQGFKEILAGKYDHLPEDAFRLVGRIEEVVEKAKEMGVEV
T1 sequence (P37810 whole entry, further chain): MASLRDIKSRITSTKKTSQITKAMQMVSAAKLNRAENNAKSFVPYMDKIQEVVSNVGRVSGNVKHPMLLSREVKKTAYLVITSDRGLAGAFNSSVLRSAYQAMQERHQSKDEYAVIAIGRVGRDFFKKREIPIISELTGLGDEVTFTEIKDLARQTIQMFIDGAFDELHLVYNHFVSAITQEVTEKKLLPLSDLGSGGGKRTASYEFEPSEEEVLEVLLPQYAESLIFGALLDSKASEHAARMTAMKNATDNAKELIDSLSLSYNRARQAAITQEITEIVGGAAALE
T1 sequence (P37808 2-502 R354W): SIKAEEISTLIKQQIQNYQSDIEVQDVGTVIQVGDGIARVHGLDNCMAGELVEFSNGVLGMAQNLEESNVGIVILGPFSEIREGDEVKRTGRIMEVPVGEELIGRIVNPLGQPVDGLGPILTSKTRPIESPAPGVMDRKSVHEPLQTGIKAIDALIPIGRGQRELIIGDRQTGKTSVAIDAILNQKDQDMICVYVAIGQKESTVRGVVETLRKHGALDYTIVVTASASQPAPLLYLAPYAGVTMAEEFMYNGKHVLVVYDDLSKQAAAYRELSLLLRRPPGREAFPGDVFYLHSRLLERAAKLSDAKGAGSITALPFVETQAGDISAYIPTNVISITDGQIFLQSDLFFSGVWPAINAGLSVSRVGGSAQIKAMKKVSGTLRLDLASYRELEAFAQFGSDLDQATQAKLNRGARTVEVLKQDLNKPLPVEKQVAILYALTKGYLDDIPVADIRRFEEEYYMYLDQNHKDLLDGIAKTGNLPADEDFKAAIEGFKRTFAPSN

Kd: 34.4 ± 2.9 µM
SMILES: Nc1ncnc2c1ncn2[C@@H]1O[C@H](COP(=O)(O)OP(=O)(O)OP(=O)(O)O)[C@@H](O)[C@H]1O [ATP]
